Measured values taken from ChEMBL document CHEMBL1201862, “PubChem BioAssay data set” (2004).
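1) Cells in 96-well plates. 2) Compound, 48 h, 5 concentrations. 3) Linear interpolation between surrounding doses. 4) Unreached endpoint = highest concentration. The concentration for 50% growth inhibition is given as GI50.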 Active and inactive are the calls of the source. Cut-off read from the data, not from the text of the source: active = GI50 up to about 1.1 µM and inactive = higher.

Tests used:
Assay in all cases: NCI anticancer screen, dose series, 48 h
NCI-H460 = system: NCI-H460
CCRF-CEM = system: CCRF-CEM
K562 = system: K562
CAKI-1 = system: CAKI-1
SF-295 = system: SF-295
HL-60 = system: HL-60
OVCAR-5 = system: OVCAR-5
KM12 = system: KM12
SNB-19 = system: SNB-19
DU-145 = system: DU-145
MOLT-4 = system: MOLT-4
Malme-3M = system: Malme-3M
UO-31 = system: UO-31
SK-MEL-2 = system: SK-MEL-2
BT-549 = system: BT-549
786-0 = system: 786-0
SK-MEL-5 = system: SK-MEL-5
EKVX = system: EKVX
SK-OV-3 = system: SK-OV-3
A498 = system: A498

Measured: GI50

Cc1ccc(S(=O)(=O)N2CCN(S(=O)(=O)c3ccc(C)cc3)Cc3ccccc3C2)cc1
inactive: NCI-H460 > 100 µM | CCRF-CEM > 100 µM | K562 > 100 µM | CAKI-1 39.4 µM | SF-295 31 µM | HL-60 > 100 µM | OVCAR-5 > 10 µM | KM12 > 100 µM | SNB-19 21.6 µM | DU-145 > 100 µM | MOLT-4 > 100 µM | Malme-3M > 100 µM | UO-31 > 100 µM | SK-MEL-2 > 100 µM | BT-549 64.9 µM | 786-0 35.2 µM | SK-MEL-5 29.3 µM | EKVX > 100 µM

CC(C)OP(=O)(OC(C)C)C(C)(C)O
inactive: CCRF-CEM > 100 µM | K562 > 100 µM | CAKI-1 > 100 µM | SF-295 > 100 µM | HL-60 83.2 µM | OVCAR-5 > 100 µM | SK-OV-3 > 100 µM | KM12 > 100 µM | SNB-19 > 100 µM | DU-145 > 100 µM | MOLT-4 > 100 µM | Malme-3M > 100 µM | UO-31 > 100 µM | SK-MEL-2 > 100 µM | BT-549 > 100 µM | 786-0 > 100 µM | SK-MEL-5 > 100 µM | EKVX > 100 µM

CN(C)CCNC(=O)Cn1cnc2cccc([N+](=O)[O-])c2c1=O
inactive: A498 > 100 µM | NCI-H460 > 100 µM | CCRF-CEM > 100 µM | K562 > 100 µM | CAKI-1 > 100 µM | SF-295 > 100 µM | HL-60 > 100 µM | OVCAR-5 > 100 µM | SK-OV-3 > 100 µM | KM12 > 100 µM | SNB-19 > 100 µM | DU-145 > 100 µM | MOLT-4 > 100 µM | Malme-3M > 100 µM | UO-31 > 100 µM | SK-MEL-2 > 100 µM | 786-0 > 100 µM | SK-MEL-5 > 100 µM | EKVX > 100 µM

Nc1nc(Cl)cc(NCC2(CO)CC=CC2)n1
inactive: NCI-H460 > 100 µM | CCRF-CEM > 100 µM | K562 > 100 µM | CAKI-1 > 100 µM | SF-295 > 100 µM | OVCAR-5 > 100 µM | SK-OV-3 > 100 µM | KM12 > 100 µM | SNB-19 > 100 µM | DU-145 > 100 µM | MOLT-4 > 100 µM | Malme-3M > 100 µM | UO-31 > 100 µM | SK-MEL-2 > 100 µM | BT-549 33.1 µM | 786-0 > 100 µM | SK-MEL-5 46.3 µM | EKVX 71 µM

CCCCOC(=O)NC(Nc1ccc(S(=O)(=O)Nc2ncccn2)cc1)(C(F)(F)F)C(F)(F)F
inactive: A498 > 100 µM | NCI-H460 > 100 µM | CCRF-CEM 76 µM | K562 > 100 µM | CAKI-1 > 100 µM | SF-295 > 100 µM | HL-60 89.7 µM | OVCAR-5 > 100 µM | SK-OV-3 > 100 µM | KM12 > 100 µM | SNB-19 > 100 µM | DU-145 > 100 µM | MOLT-4 > 100 µM | Malme-3M > 100 µM | UO-31 21.7 µM | 786-0 > 100 µM | SK-MEL-5 > 100 µM | EKVX > 100 µM

O=c1[nH]c(=O)n(C2CC(O)C(CO)O2)cc1OCc1ccccc1 (stereo not given)
inactive: NCI-H460 > 100 µM | CCRF-CEM > 100 µM | K562 > 100 µM | CAKI-1 > 100 µM | HL-60 > 100 µM | OVCAR-5 > 100 µM | SK-OV-3 > 100 µM | KM12 > 100 µM | SNB-19 > 100 µM | DU-145 > 100 µM | MOLT-4 > 100 µM | Malme-3M > 100 µM | UO-31 > 100 µM | BT-549 > 100 µM | 786-0 > 100 µM | SK-MEL-5 > 100 µM | EKVX > 100 µM

CC1CCC/C1=C(/I)C(=O)c1ccccc1 (stereo not given)
inactive: NCI-H460 > 100 µM | CCRF-CEM 30.4 µM | K562 34.4 µM | CAKI-1 2.97 µM | SF-295 27 µM | HL-60 39.5 µM | OVCAR-5 18.5 µM | SK-OV-3 > 100 µM | KM12 25.4 µM | SNB-19 > 100 µM | DU-145 > 100 µM | MOLT-4 19.2 µM | Malme-3M 64.4 µM | UO-31 > 100 µM | SK-MEL-2 > 100 µM | 786-0 > 100 µM | SK-MEL-5 26.2 µM | EKVX > 100 µM

CC1(C)CC(=O)c2c(nc3c(ccc4ccccc43)c2-c2ccc(NC(=O)CCCCC(=O)Nc3ccc(-c4c5c(nc6c4ccc4ccccc46)CC(C)(C)CC5=O)cc3)cc2)C1
inactive: NCI-H460 27.7 µM | CCRF-CEM 20.7 µM | K562 30.8 µM | CAKI-1 35.3 µM | SF-295 19.6 µM | HL-60 29.6 µM | OVCAR-5 30.9 µM | SK-OV-3 37.2 µM | KM12 20.7 µM | SNB-19 69.2 µM | DU-145 36.1 µM | MOLT-4 13.7 µM | UO-31 19.5 µM | SK-MEL-2 33 µM | 786-0 42.2 µM | SK-MEL-5 32.1 µM | EKVX 21.2 µM

COc1cc2c(cc1OC)C1CCc3ccccc3CN1CC2 (stereo not given)
inactive: A498 > 100 µM | NCI-H460 > 100 µM | CCRF-CEM > 100 µM | K562 > 100 µM | CAKI-1 > 100 µM | SF-295 > 100 µM | HL-60 > 100 µM | OVCAR-5 > 100 µM | SK-OV-3 > 100 µM | KM12 > 100 µM | SNB-19 > 100 µM | DU-145 > 100 µM | MOLT-4 > 100 µM | Malme-3M > 100 µM | SK-MEL-2 > 100 µM | 786-0 > 100 µM | SK-MEL-5 > 100 µM | EKVX > 100 µM

O=c1c2ccccc2nc(-c2ccccc2Cl)n1NC1OC(CO)C(O)C(O)C1O (stereo not given)
inactive: A498 > 100 µM | NCI-H460 > 100 µM | CCRF-CEM > 100 µM | K562 > 100 µM | CAKI-1 > 100 µM | SF-295 > 100 µM | HL-60 > 100 µM | OVCAR-5 > 100 µM | SK-OV-3 > 100 µM | KM12 > 100 µM | SNB-19 > 100 µM | MOLT-4 > 100 µM | Malme-3M > 100 µM | UO-31 > 100 µM | SK-MEL-2 > 100 µM | 786-0 > 100 µM | SK-MEL-5 > 100 µM | EKVX > 100 µM

COC(=O)Cn1cnc2c(Cl)nc(Nc3ccccc3)nc21
inactive: A498 > 100 µM | NCI-H460 32.8 µM | CCRF-CEM 27.2 µM | K562 10.6 µM | SF-295 > 100 µM | HL-60 22.4 µM | SK-OV-3 > 100 µM | KM12 > 100 µM | SNB-19 67.9 µM | MOLT-4 26.5 µM | Malme-3M 54.3 µM | SK-MEL-2 16.4 µM | BT-549 86.5 µM | 786-0 > 100 µM | SK-MEL-5 39 µM | EKVX 27 µM
